Results: patent US9981916B2 (Genentech, Inc., priority 2013, dated 2018)

Target: T1, RORc ligand binding domain (Homo sapiens, UniProt P51449)
T1 construct: host or cells: E. coli
T1 sequence (P51449 269-508 limits assumed): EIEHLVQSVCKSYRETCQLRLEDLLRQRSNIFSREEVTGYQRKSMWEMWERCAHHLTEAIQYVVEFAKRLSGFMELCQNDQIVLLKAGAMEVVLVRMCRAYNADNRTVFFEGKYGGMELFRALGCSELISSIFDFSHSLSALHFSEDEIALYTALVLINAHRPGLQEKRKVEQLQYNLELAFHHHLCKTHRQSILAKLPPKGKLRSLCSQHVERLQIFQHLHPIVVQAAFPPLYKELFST
Experiment: In vitro RORc ligand binding assay (25-[3H]hydroxycholesterol displacement, filter binding)
Conditions: 6 nM 25-[3H]hydroxycholesterol, 0.6 ug/mL RORc receptor, 3 h at 25° C.
Procedure, shortened: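 Compounds in 5% DMSO, either dose-response or screened at 1 and 10 uM, competed with 6 nM 25-[3H]hydroxycholesterol for 0.6 ug/mL RORc over 3 h at 25° C (HEPES pH 7.4, NaCl, MgCl2, DTT, BSA buffer). Bound tracer was filter-harvested and counted; nonspecific binding came from 1 uM 25-hydroxycholesterol.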

| SMILES | IC50 |
| --- | --- |
| CC(=O)N(CCO)C[C@@]12CC[C@@H](c3cc(-c4c(F)cccc4F)nnc31)C2(C)C [Example 289, N-(((5R,8S)-3-(2,6-difluorophenyl)-9,9-dimethyl-5,6,7,8-tetrahydro-5,8-methanocinnolin-8-yl)methyl)-N-(2-hydroxyethyl)acetamide] | 258 nM |
| CC(=O)OCCN(C[C@@]12CC[C@@H](c3cc(-c4c(F)cccc4F)nnc31)C2(C)C)C(C)=O [Example 290, 2-(N-(((5R,8S)-3-(2,6-difluorophenyl)-9,9-dimethyl-5,6,7,8-tetrahydro-5,8-methanocinnolin-8-yl)methyl)acetamido)ethyl acetate] | 121 nM |
| CC1(C)[C@H]2CC[C@]1(CNCC(F)F)c1nnc(-c3c(F)cccc3F)cc12 [Example 291, N-(((5R,8S)-3-(2,6-difluorophenyl)-9,9-dimethyl-5,6,7,8-tetrahydro-5,8-methanocinnolin-8-yl)methyl)-2,2-difluoroethanamine] | 149 nM |
| CCOC(=O)N(CC(F)F)C[C@@]12CC[C@@H](c3cc(-c4c(F)cccc4F)nnc31)C2(C)C [Example 292, ethyl (2,2-difluoroethyl)(((5R,8S)-3-(2,6-difluorophenyl)-9,9-dimethyl-5,6,7,8-tetrahydro-5,8-methanocinnolin-8-yl)methyl)carbamate] | 7 nM |
| CCNC(=O)N(CC(F)F)C[C@@]12CC[C@@H](c3cc(-c4c(F)cccc4F)nnc31)C2(C)C [Example 293, 1-(2,2-difluoroethyl)-1-(((5R,8S)-3-(2,6-difluorophenyl)-9,9-dimethyl-5,6,7,8-tetrahydro-5,8-methanocinnolin-8-yl)methyl)-3-ethylurea] | 42 nM |
| C[C@@H]1COC(=O)N1C[C@@]12CC[C@@H](c3cc(-c4c(F)cccc4F)nnc31)C2(C)C [Example 294, (R)-3-(((5R,8S)-3-(2,6-difluorophenyl)-9,9-dimethyl-5,6,7,8-tetrahydro-5,8-methanocinnolin-8-yl)methyl)-4-methyloxazolidin-2-one] | 103 nM |
| C[C@H]1COC(=O)N1C[C@@]12CC[C@@H](c3cc(-c4c(F)cccc4F)nnc31)C2(C)C [Example 295, (S)-3-(((5R,8S)-3-(2,6-difluorophenyl)-9,9-dimethyl-5,6,7,8-tetrahydro-5,8-methanocinnolin-8-yl)methyl)-4-methyloxazolidin-2-one] | 1110 nM |
| CCN(C[C@@]12CC[C@@H](c3cc(-c4c(F)cccc4F)nnc31)C2(C)C)c1nnc(CO)o1 [Example 296, (5-((((5R,8S)-3-(2,6-difluorophenyl)-9,9-dimethyl-5,6,7,8-tetrahydro-5,8-methanocinnolin-8-yl)methyl)(ethyl)amino)-1,3,4-oxadiazol-2-yl)methanol] | 22 nM |
| CC1(C)[C@H]2CC[C@]1(CNCCO)c1nnc(-c3c(F)cccc3F)cc12 [Example 297, 2-((((5R,8S)-3-(2,6-difluorophenyl)-9,9-dimethyl-5,6,7,8-tetrahydro-5,8-methanocinnolin-8-yl)methyl)amino)ethanol] | 2420 nM |
| CC(=O)NCC(=O)N(CCO)C[C@@]12CC[C@@H](c3cc(-c4c(F)cccc4F)nnc31)C2(C)C [Example 298, 2-acetamido-N-(((5R,8S)-3-(2,6-difluorophenyl)-9,9-dimethyl-5,6,7,8-tetrahydro-5,8-methanocinnolin-8-yl)methyl)-N-(2-hydroxyethyl)acetamide] | 705 nM |
| CN(C(=O)OCCO)[C@@]12CC[C@@H](c3cc(-c4c(F)cccc4F)nnc31)C2(C)C [Example 299, 2-hydroxyethyl ((5R,8R)-3-(2,6-difluorophenyl)-9,9-dimethyl-5,6,7,8-tetrahydro-5,8-methanocinnolin-8-yl)(methyl)carbamate] | 1480 nM |
| CC(C)(O)[C@@]12CC[C@@H](c3cc(-c4c(F)cccc4F)nnc31)C2(C)C [Example 300, 2-((5R,8R)-3-(2,6-difluorophenyl)-9,9-dimethyl-5,6,7,8-tetrahydro-5,8-methanocinnolin-8-yl)propan-2-ol] | 28 nM |
| CCN(C[C@@]12CC[C@@H](c3cc(-c4c(F)cccc4F)nnc31)C2(C)C)c1cccc(=O)[nH]1 [Example 301, 6-((((5R,8S)-3-(2,6-difluorophenyl)-9,9-dimethyl-5,6,7,8-tetrahydro-5,8-methanocinnolin-8-yl)methyl)(ethyl)amino) pyridin-2(1H)-one] | 12 nM |
| CCN(C[C@@]12CC[C@@H](c3cc(-c4c(F)cccc4F)nnc31)C2(C)C)c1nccc(=O)[nH]1 [Example 302, 2-((((5R,8S)-3-(2,6-difluorophenyl)-9,9-dimethyl-5,6,7,8-tetrahydro-5,8-methanocinnolin-8-yl)methyl)(ethyl)amino) pyrimidin-4(3H)-one] | 108 nM |
| CCN(C[C@@]12CC[C@@H](c3cc(-c4c(F)cccc4F)nnc31)C2(C)C)c1nnc(C(F)(F)F)o1 [Example 303, N-(((5R,8S)-3-(2,6-difluorophenyl)-9,9-dimethyl-5,6,7,8-tetrahydro-5,8-methanocinnolin-8-yl)methyl)-N-ethyl-5-(trifluoromethyl)-1,3,4-oxadiazol-2-amine] | 10 nM |
| CCN(CC(N)=O)C[C@@]12CC[C@@H](c3cc(-c4c(F)cccc4F)nnc31)C2(C)C [Example 304, 2-((((5R,8S)-3-(2,6-difluorophenyl)-9,9-dimethyl-5,6,7,8-tetrahydro-5,8-methanocinnolin-8-yl)methyl)(ethyl)amino) acetamide] | 56 nM |
| CC1(C)[C@H]2CC[C@]1(CN(CC(N)=O)CC(F)F)c1nnc(-c3c(F)cccc3F)cc12 [Example 305, 2-((2,2-difluoroethyl)(((5R,8S)-3-(2,6-difluorophenyl)-9,9-dimethyl-5,6,7,8-tetrahydro-5,8-methanocinnolin-8-yl)methyl)amino) acetamide] | 437 nM |
| CN(CC(N)=O)[C@@]12CC[C@@H](c3cc(-c4c(F)cccc4F)nnc31)C2(C)C [Example 306, 2-(((5R,8R)-3-(2,6-difluorophenyl)-9,9-dimethyl-5,6,7,8-tetrahydro-5,8-methanocinnolin-8-yl)(methyl)amino) acetamide] | 920 nM |
| CC1(C)[C@H]2CC[C@]1(NCC(F)F)c1nnc(-c3c(F)cccc3F)cc12 [Example 307, (5R,8R)-N-(2,2-difluoroethyl)-3-(2,6-difluorophenyl)-9,9-dimethyl-5,6,7,8-tetrahydro-5,8-methanocinnolin-8-amine] | 71 nM |
| CC1(C)[C@H]2CC[C@]1(CN(CC(F)F)C(=O)CO)c1nnc(-c3c(F)cccc3F)cc12 [Example 308, N-(2,2-difluoroethyl)-N-(((5R,8S)-3-(2,6-difluorophenyl)-9,9-dimethyl-5,6,7,8-tetrahydro-5,8-methanocinnolin-8-yl)methyl)-2-hydroxyacetamide] | 22 nM |
| CC1(C)[C@H]2CC[C@]1(CNCCC#N)c1nnc(-c3c(F)cccc3F)cc12 [Example 309, 3-((((5R,8S)-3-(2,6-difluorophenyl)-9,9-dimethyl-5,6,7,8-tetrahydro-5,8-methanocinnolin-8-yl)methyl)amino) propanenitrite] | 590 nM |
| CC1(C)[C@H]2CC[C@]1(CN(CCC#N)C(N)=O)c1nnc(-c3c(F)cccc3F)cc12 [Example 310, 1-(2-cyanoethyl)-1-(((5R,8S)-3-(2,6-difluorophenyl)-9,9-dimethyl-5,6,7,8-tetrahydro-5,8-methanocinnolin-8-yl)methyl)urea] | 363 nM |
| COCC(=O)N(CCC#N)C[C@@]12CC[C@@H](c3cc(-c4c(F)cccc4F)nnc31)C2(C)C [Example 311, N-(2-cyanoethyl)-N-(((5R,8S)-3-(2,6-difluorophenyl)-9,9-dimethyl-5,6,7,8-tetrahydro-5,8-methanocinnolin-8-yl)methyl)-2-methoxyacetamide] | 176 nM |
| CCOC(=O)N(CCC#N)C[C@@]12CC[C@@H](c3cc(-c4c(F)cccc4F)nnc31)C2(C)C [Example 312, ethyl (2-cyanoethyl)(((5R,8S)-3-(2,6-difluorophenyl)-9,9-dimethyl-5,6,7,8-tetrahydro-5,8-methanocinnolin-8-yl)methyl)carbamate] | 45 nM |
| CN(C(=O)CO)[C@@]12CC[C@@H](c3cc(-c4c(F)cccc4F)nnc31)C2(C)C [Example 313, N-((5R,8R)-3-(2,6-difluorophenyl)-9,9-dimethyl-5,6,7,8-tetrahydro-5,8-methanocinnolin-8-yl)-2-hydroxy-N-methylacetamide] | 393 nM |
| C[C@@H]1CN(C[C@@]23CC[C@@H](c4cc(-c5c(F)cccc5F)nnc42)C3(C)C)C(=O)O1 [Example 314, (R)-3-(((5R,8S)-3-(2,6-difluorophenyl)-9,9-dimethyl-5,6,7,8-tetrahydro-5,8-methanocinnolin-8-yl)methyl)-5-methyloxazolidin-2-one] | 454 nM |
| C[C@H]1CN(C[C@@]23CC[C@@H](c4cc(-c5c(F)cccc5F)nnc42)C3(C)C)C(=O)O1 [Example 315, (S)-3-(((5R,8S)-3-(2,6-difluorophenyl)-9,9-dimethyl-5,6,7,8-tetrahydro-5,8-methanocinnolin-8-yl)methyl)-5-methyloxazolidin-2-one] | 350 nM |
| CC1(C)[C@H]2CC[C@]1(CN(CCC#N)C(=O)CO)c1nnc(-c3c(F)cccc3F)cc12 [Example 316, N-(2-cyanoethyl)-N-(((5R,8S)-3-(2,6-difluorophenyl)-9,9-dimethyl-5,6,7,8-tetrahydro-5,8-methanocinnolin-8-yl)methyl)-2-hydroxyacetamide] | 233 nM |
